# Experimental data as given in patent US20210315893A1 (Galapagos NV, priority 2017, published 2021).
# Legend:
# [1] = tested on: HFL-1 cells; assay: IL8 assay in the presence of Human Serum Albumin; settings: HFL1, read-out: HSA IL8 EC50
# [2] = target: T1, human GPCR sphingosine 1-phosphate receptor 5 (Homo sapiens, UniProt Q9H228); assay: S1PR5 selectivity Ca2+ flux assay (antagonist readout); format: cell-based; settings: CHO cells overexpressing human S1PR5 and Gq, agonist at EC80 (20 nM), read-out: S1P5 EC50 (nM), S1P5 antagonist EC50
# T1 construct: host or cells: CHO
# T1 sequence (Q9H228 whole entry): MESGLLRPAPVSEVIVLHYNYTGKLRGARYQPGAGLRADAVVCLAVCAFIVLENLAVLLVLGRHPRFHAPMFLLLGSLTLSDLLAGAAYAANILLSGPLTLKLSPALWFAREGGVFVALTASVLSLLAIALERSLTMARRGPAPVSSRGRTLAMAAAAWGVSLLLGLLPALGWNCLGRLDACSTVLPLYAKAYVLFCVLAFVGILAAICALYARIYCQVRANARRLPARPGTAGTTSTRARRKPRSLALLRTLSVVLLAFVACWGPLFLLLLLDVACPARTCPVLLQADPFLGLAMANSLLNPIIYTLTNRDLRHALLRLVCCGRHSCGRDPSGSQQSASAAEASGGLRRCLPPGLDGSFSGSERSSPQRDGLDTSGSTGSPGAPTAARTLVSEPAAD
# Text: To evaluate the selectivity of the compounds for S1PR2 over S1PR1 and S1PR5, asimilar assay set upas described above for theS1PR2 calcium flux assays waspeformed: CHO cells stably overexpressing human GPCR sphingosine 1-phosphate receptor 1 and Gq protein (Euroscreen, FAST-0197A) or overexpressing human GPCR sphingosine 1-phosphate receptorS5 and Gq protein were used (Perkin Elmer, ES-593-A). In case of the S1PR5 assay triggering was done with an SPR5 specific agonist instead of with S1P (Hobson et al., 2015).
# (§1) 50 μL of Chinese hamster ovary (CHO) cells stably overexpressing human S1PR1 or S1PR5 are seeded in 384 well sterile microplates (7,500 cells/well or 10,000 cells/well respectively) and are incubated overnight at 37° C. under 5% CO2. Cells are subsequently washed twice with 25 μL/well of starvation medium (F-12 Ham's medium containing 0.1% fatty acid free bovine serum albumin (FAF BSA)). After one h starvation at 37° C., 5% CO2, cells are loaded with 25 μL of Fluo 8 dye diluted in Hank's balanced salt solution (HBSS) with 20 mM Hepes complemented with 5 mM of probenecid following the recommendations of the manufacturer (one h at 37° C., 5% CO2). Dilution series of compounds are prepared in HBSS buffer with 20 mM Hepes and 0.1% BSA (FAF). 10 μL of diluted compound is added to the cells using the FDSS/pCELL and intracellular calcium changes are measured immediately by recording fluorescence during 3 min (agonist readout). The ratio of maximal signal over background before compound injection is used to determine compound response.
# After an incubation of 15 min at 37° C., following the agonist readout, the plates are transferred to the FDSS/pCELL reader. Cells are stimulated with 10 μL of EC80 concentration of S1P (6 nM for S1P1 and 20 nM for S1P5) and intracellular calcium changes are measured immediately by recording fluorescence during three min (antagonist readout). The ratio of maximal signal over background before S1P injection was used to determine the inhibitory effect ofthe compound.
# (§2) Raw data obtained in each experiment (ratio of maximal signal over background for calcium mobilization assays) were normalized in percentage of activation (agonist mode) or inhibition (antagonist mode) using positive and negative experiment controls. Each individual plate quality was assessed by evaluation of Z′ factor calculated with raw data using the following equation
# (§3) Y=bottom+(top−bottom)/(1+(10^(Log IC50−X)*Hillslope)) where X is the logarithm of the concentration of the compound
# [3] = tested on: HFL-1 cells; assay: IL-8 production assay (S1P induced IL-8); format: cell-based; settings: Homo sapiens, HFL1; S1P (1 μM) induced IL-8 in HFL-1 cells, starvation medium without HSA; read-out: IL8 EC50
# Procedure, shortened: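 HFL-1 fibroblasts in low-serum medium were pretreated 1 h with a 10-point 1/3 series of compound starting at 30 μM (0.3% DMSO).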
# [4] = target: T2, human GPCR sphingosine 1-phosphate receptor 2 (Homo sapiens, UniProt O95136); assay: S1PR2 antagonist Ca2+ flux assay; format: cell-based; settings: antagonist mode, CHO-S1PR2 cells, S1P at EC80, Ca2+ fluorescence; read-out: S1P2 EC50 (nM), S1P2 antagonist EC50
# T2 construct: host or cells: CHO
# T2 sequence (O95136 whole entry): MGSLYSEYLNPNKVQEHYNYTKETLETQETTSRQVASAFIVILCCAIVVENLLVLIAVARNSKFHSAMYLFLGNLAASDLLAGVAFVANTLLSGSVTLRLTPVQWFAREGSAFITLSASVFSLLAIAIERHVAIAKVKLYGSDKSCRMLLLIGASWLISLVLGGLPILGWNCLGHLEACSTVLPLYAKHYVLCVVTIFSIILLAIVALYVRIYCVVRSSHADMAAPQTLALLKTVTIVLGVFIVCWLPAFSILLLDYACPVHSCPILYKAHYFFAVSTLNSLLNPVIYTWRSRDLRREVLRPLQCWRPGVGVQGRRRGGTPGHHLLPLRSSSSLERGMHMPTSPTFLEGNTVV
# Procedure, shortened: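 Antagonist mode: 15 min after compound addition, S1P (EC80) stimulates Fluo8-loaded, 1 h-starved CHO-S1PR2 cells, Ca2+ read over 3 min; a prior 3-min read checks compound agonism. EC50 from peak/baseline fluorescence ratio, normalised versus vehicle and S1P EC50 (antagonist) or EC100 (agonist).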
# [5] = target: T3, human GPCR sphingosine 1-phosphate receptor 1 (Homo sapiens, UniProt P21453); assay: S1PR1 selectivity Ca2+ flux assay (antagonist readout); format: cell-based; settings: antagonist readout, CHO cells overexpressing human S1PR1 and Gq, S1P at EC80 (6 nM); read-out: S1P1 EC50 (nM), S1P1 antagonist EC50
# T3 construct: host or cells: CHO
# T3 sequence (P21453 whole entry): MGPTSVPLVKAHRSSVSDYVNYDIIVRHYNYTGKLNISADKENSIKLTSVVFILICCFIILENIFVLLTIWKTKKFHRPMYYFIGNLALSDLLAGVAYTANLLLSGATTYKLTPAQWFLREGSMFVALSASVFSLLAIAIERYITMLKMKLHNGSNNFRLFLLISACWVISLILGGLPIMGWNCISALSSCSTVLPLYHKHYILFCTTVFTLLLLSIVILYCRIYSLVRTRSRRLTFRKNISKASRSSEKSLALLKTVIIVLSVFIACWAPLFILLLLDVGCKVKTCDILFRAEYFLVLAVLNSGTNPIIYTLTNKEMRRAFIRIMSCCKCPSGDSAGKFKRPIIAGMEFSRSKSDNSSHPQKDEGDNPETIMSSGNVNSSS
# Description: as §1
# After an incubation of 15 min at 37° C., following the agonist readout, the plates are transferred to the FDSS/pCELL reader. […] The ratio of maximal signal over background before S1P injection was used to determine the inhibitory effect ofthe compound.
# as §2, §3
# [6] = target: T4, S1PR2 (Homo sapiens, UniProt O95136); assay: S1PR2 binding assay (competition with radioactively labeled S1P, SpA); settings: membranes from stable cell line over expressing S1PR2, SpA beads; read-out: S1P2 EC50 (nM), S1PR2 binding EC50
# T4 construct: expressed in transfected cells
# T4 sequence (O95136 whole entry): as the sequence (O95136 whole entry) above
# Procedure, shortened: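 Scintillation proximity read-out after 2 h room-temperature incubation of compound, [3H]S1P and S1PR2-overexpressing cell membranes on WGA-coated beads. Buffer: 20 mM Tris pH 7.5, 100 mM NaCl, 10 mM MgCl2, 1 mM Na3VO4, 0.4% fatty-acid-free BSA; plates counted immediately after centrifugation.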
SMILES,EC50 [1] [nM],EC50 [2] [nM],EC50 [3] [nM],EC50 [4] [nM],EC50 [5] [nM],EC50 [6] [nM]
"CCOc1cc2[nH]c(Cc3nn(CC(=O)N4CCOCC4)c(=O)c4ccccc34)nc2cc1C(F)(F)F [Compound 168, 4-[[6-ethoxy-5-(trifluoromethyl)-1H-benzimidazol-2-yl]methyl]-2-(2-morpholino-2-oxo-ethyl)phthalazin-1-one]",28.1,19800,4.57,11.9,≥ 19800,86.4
"CC(C(=O)O)n1nc(Cc2nc3cc(OCC4CC4)c(Cl)cc3[nH]2)c2ccccc2c1=O (stereo not drawn) [Compound 122, 2-[4-(6-Chloro-5-cyclopropylmethoxy-1H-benzoimidazol-2-ylmethyl)-1-oxo-1H-phthalazin-2-yl]-propionic acid]",13.3,19800,2.29,13.6,3720,342
"CCOc1cc2[nH]c(Cc3nn(CC(=O)N4CCOCC4)c(=O)c4ccccc34)nc2cc1C#N [Compound 170, 6-ethoxy-2-[[3-(2-morpholino-2-oxo-ethyl)-4-oxo-phthalazin-1-yl]methyl]-1H-benzimidazole-5-carbonitrile]",137,19800,10.6,42.5,≥ 19800,112
"O=C(Cn1nc(Cc2nc3cc(OCC(F)F)c(Cl)cc3[nH]2)c2c(F)ccc(F)c2c1=O)N1CCOCC1 [Compound 152, 4-[[6-chloro-5-(2,2-difluoroethoxy)-1H-benzimidazol-2-yl]methyl]-5,8-difluoro-2-(2-morpholino-2-oxo-ethyl)phthalazin-1-one]",201,19800,6.65,19.1,≥ 19800,64
"O=C(O)Cn1nc(Cc2cn3cc(OCC4CC4)c(Cl)cc3n2)c2ccccc2c1=O [Compound 82, 2-[4-[[7-chloro-6-(cyclopropylmethoxy)imidazo[1,2-a]pyridin-2-yl]methyl]-1-oxo-phthalazin-2-yl]acetic acid]",390,4380,9.96,,≥ 19800,
"CC(C)(C(=O)O)c1nn(Cc2cn3cc(OCC4CC4)c(Cl)cc3n2)c2ccccc2c1=O [Compound 88, 2-[1-[[7-chloro-6-(cyclopropylmethoxy)imidazo[1,2-a]pyridin-2-yl]methyl]-4-oxo-cinnolin-3-yl]-2-methyl-propanoic acid]",410,19800,29.8,,≥ 19800,
"C[C@@H](C(=O)O)c1nn(Cc2cn3cc(OCC4CC4)c(Cl)cc3n2)c2ccccc2c1=O [compound 20, (2R)-2-[1-[[7-chloro-6-(cyclo-propylmethoxy)-imidazo[1,2-a]pyridin-2-yl]-methyl]-4-oxo-cinnolin-3-yl]-propanoic acid]",3320,19800,134,,≥ 19800,
"COC(C(=O)O)c1nn(Cc2cn3cc(OCC4CC4)c(Cl)cc3n2)c2ccccc2c1=O (stereo not drawn) [Compound 94, 2-[1-[[7-chloro-6-(cyclopropylmethoxy)imidazo[1,2-a]pyridin-2-yl]methyl]-4-oxo-cinnolin-3-yl]-2-methoxy-acetic acid]",267,19800,105,,≥ 19800,
"CCC(C(=O)O)c1nn(Cc2cn3cc(OCC4CC4)c(Cl)cc3n2)c2ccccc2c1=O (stereo not drawn) [Compound 98, 2-[1-[[7-chloro-6-(cyclopropylmethoxy)imidazo[1,2-a]pyridin-2-yl]methyl]-4-oxo-cinnolin-3-yl]butanoic acid]",26.9,19800,5.69,,≥ 19800,
"C[C@H](C(=O)O)n1nc(Cn2cc3cc(OCC4CC4)c(Cl)cc3n2)c2ccccc2c1=O [compound 17, ((2R)-2-[4-[[6-chloro-5-(cyclo-propylmethoxy)-indazol-2-yl]-methyl]-1-oxo-phthalazin-2-yl]-propanoic acid)]",211,19800,3.02,,8810,

# Other lines, results leading:
EC50 [1] [nM],EC50 [2] [nM],EC50 [3] [nM],EC50 [4] [nM],EC50 [5] [nM],EC50 [6] [nM],SMILES
178,19800,70.7,41.4,≥ 19800,159,"N#Cc1cc2[nH]c(Cc3nn(CC(=O)N4CCC(O)(C5CC5)CC4)c(=O)c4ccccc34)nc2cc1OCC(F)F [Compound 213, 2-[[3-[2-(4-cyclopropyl-4-hydroxy-1-piperidyl)-2-oxo-ethyl]-4-oxo-phthalazin-1-yl)methyl]-6-(2,2-difluoroethoxy)-3H-benzimidazole-5-carbonitrile]"
96.3,19800,109,238,≥ 19800,272,"N#Cc1cc2[nH]c(Cc3nn(C4CN(CC(=O)O)C4)c(=O)c4ccccc34)nc2cc1OCC(F)F [Compound 69, 2-[3-[4-[[6-cyano-5-(2,2-difluoroethoxy)-1H-benzimidazol-2-yl]-methyl]-1-oxo-phthalazin-2-yl]azetidin-1-yl]acetic acid]"
44.9,19800,23.1,30,≥ 19800,,"N#Cc1cc2nc(Cc3nn(CC(=O)N4CCOCC4)c(=O)c4ccccc34)[nH]c2cc1OCC(F)F [Compound 171, 6-(2,2-difluoroethoxy)-2-[[3-(2-morpholino-2-oxo-ethyl)-4-oxo-phthalazin-1-yl]methyl]-1H-benzimidazole-5-carbonitrile]"
15600,19800,3320,,≥ 19800,3930,"N#Cc1cc2[nH]c(Cc3nn(CC4CCCN4)c(=O)c4ccccc34)nc2cc1OCC(F)F (stereo not drawn) [compound 1, 6-(2,2-difluoro-ethoxy)-2-[[4-oxo-3-(pyrrolidin-2-ylmethyl)-phthalazin-1-yl]-methyl]-3H-benzimidazole-5-carbonitrile]"
446,19800,66.6,,13200,,"O=C(O)Cn1nc(Cc2nc3cc(OCC4CC4)c(F)cc3[nH]2)c2ccccc2c1=O [Compound 124, 2-[4-[[5-(cyclopropylmethoxy)-6-fluoro-1H-benzimidazol-2-yl]methyl]-1-oxo-phthalazin-2-yl]acetic acid]"
95.2,19800,25.5,,≥ 19800,,"O=C(O)Cn1nc(Cc2nc3cc(Cl)c(OCC(F)F)cc3[nH]2)c2ccccc2c1=O [Compound 118, 2-[4-[[5-chloro-6-(2,2-difluoroethoxy)-1H-benzimidazol-2-yl]methyl]-1-oxo-phthalazin-2-yl]acetic acid]"
